According to patent US9279105B2, “Enrichment of stem cells from adult tissues” (Board of Supervisors of Louisiana State University And …, priority 2009, dated 2016):

Experiments:
Type in all cases: cell-based, rat
DFSCs [1] = assay: 4-HC treatment of DFSCs for elimination of non-stem cells; settings: 5-25 μM tested, 48 hours at 37° C., α-MEM with 20% FBS
Protocol: (§1) Establishment of cell cultures from rat dental follicle: Dental follicles (DF) were surgically removed from the first mandibular molars of Sprague Dawley rat pups at days 5-7 postnatally, and the isolated DF cells then suspended in MEM medium containing 10% newborn calf serum (NCS), 1 mM sodium pyruvate and antibiotics as previously described (Wise et al., 1992). Next, 5 ml of the cell suspension was transferred into a T-25 cell culture flask and incubated overnight to allow the cells to adhere. […]
We also tested an ALDH substrate, 4-hydroperoxycyclophosphamide (4-HC), for elimination of non-stem cells in culture. […] Putative stem cells surviving from a 4-HC treatment expressed a high level of multiple stem cell markers, including Abcb1, Prom1, Notch 1, and CD34, as determined by RT-PCR and western blotting. On the average, about a 2 to 4-fold increase in expression of these markers was detected in the 4-HC surviving cells as compared to the original population.

DFSCs [2] = assay: Proliferation of cells surviving 4-HC treatment (flow cytometry analysis)
[3] = test system: Abcb1, Prom1, Notch 1, and CD34; assay: Stem cell marker expression in 4-HC surviving cells by RT-PCR and western blotting; settings: 4-HC surviving cells compared to the original population; on the average
Protocol: We also tested an ALDH substrate, 4-hydroperoxycyclophosphamide (4-HC), for elimination of non-stem cells in culture. DFSCs were cultured as described above and then treated with 4-HC at the concentrations of 5, 10, 15, 20 and 25 μM in α-MEM medium containing 20% FBS for 48 hours at 37° C. The majority of the cells were killed at a 4-HC concentration greater than 15 μM. The surviving cells then were collected and subjected to cell proliferation, differentiation, and gene expression assays as described above for evaluation of stem cell properties. Putative stem cells surviving from a 4-HC treatment expressed a high level of multiple stem cell markers, including Abcb1, Prom1, Notch 1, and CD34, as determined by RT-PCR and western blotting. On the average, about a 2 to 4-fold increase in expression of these markers was detected in the 4-HC surviving cells as compared to the original population.

[4] = test system: dental follicle cells (DFCs; non-stem cells); assay: 4-HC treatment of dental follicle cells (non-stem cells); settings: same 4-HC treatment protocol applied to DFCs
DFSCs [5] = assay: Doxorubicin treatment of DFSCs, count of viable cells (survival rate); settings: DOX 1 μM, incubation increased from 2 to 4 to 6 hours, compared to control without DOX; FIG. 2
Protocol: as §1
In another experiment to determine to enrich the populations of stem cells, DFSCs were treated with doxorubicin (DOX), a substrate of BCRP, at concentrations of 0.5, 1 or 2 μM for 1, 2, 4 and 6 hrs. […] The number of viable cells was counted in 5 to 10 randomly selected spots (1 mm^2 each) for calculation of the survival rate as the ratio of treatment/control. […]

DFSCs [6] = assay: Adipogenesis differentiation of cells surviving DOX, Oil Red O staining; settings: cells that survived DOX for 4 hours; untreated control DFSCs formed only a few adipocytes
Protocol: To determine the differentiation capabilities of the putative stem cells, DFSCs were subjected to various differentiation procedures. For osteogenesis, cells were cultured for 2 weeks in medium consisting of DMEM-LG, 10% FBS, 50 μg/ml ascorbate-2 phosphate, 10^−8 M dexamethasone, and 10 mM β-glycerophosphate […] as previously described, followed by von Kossa and Alizarin Red staining to assess for mineral deposition (as described in Hung et al., 2002). For adipogenesis, DFSCs were cultured for 2 weeks in medium consisting of DMEM-LG, 10% FBS (Invitrogen Corporation, Carlsbad, Calif., USA), 50 μg/ml ascorbate-2 phosphate (Sigma-Aldrich), 10^−7 M dexamethasone, and 50 μg/ml indomethacin, with a medium change every 3 days (Hung et al., 2002). The cells then were stained with Oil red O to evaluate adipogenesis.
In another experiment to determine to enrich the populations of stem cells, DFSCs were treated with doxorubicin (DOX), a substrate of BCRP, at concentrations of 0.5, 1 or 2 μM for 1, 2, 4 and 6 hrs. The cells were incubated at 37° C. for the designated duration. […] The number of viable cells was counted in 5 to 10 randomly selected spots (1 mm^2 each) for calculation of the survival rate as the ratio of treatment/control. […]

Compound | 4-HC concentration at which the majority of the cells were killed (DFSCs [1]) | proliferation rate of putative stem cells surviving 4-HC (DFSCs [2]; flow cytometry, compared to original cell population not subjected to 4-HC) | effect of 4-HC treatment on proliferation of the cells (DFSCs [2]; surviving cells) | increase in expression of stem cell markers [3] | survival of cells [4] | number of surviving cells (DFSCs [5]) | adipocyte formation of surviving cells in adipogenesis induction medium (DFSCs [6])
O=P1(N(CCCl)CCCl)NC(OO)CCO1 (stereo not shown) [4-HC, 4-hydroperoxycyclophosphamide] | greater than 15 μM | higher proliferation rate | did not adversely affect | 2 to 4 fold | none of them survived | – | –
COc1cccc2c1C(=O)c1c(O)c3c(c(O)c1C2=O)C[C@@](O)(C(=O)CO)C[C@@H]3O[C@H]1C[C@H](N)[C@H](O)[C@H](C)O1 [DOX, doxorubicin] | – | – | – | – | – | decreasing | majority of the cells forming Oil Red O positive adipocytes
